# According to patent US20230332103A1, “Methods and Compositions for Generating Human Forebrain Neural Progenitor Cells and for Maturation Thereof to Parvalbumin+ Interneurons” (Trailhead Biosystems Inc., priority 2021, published 2023):
# Where “and” joins values, the source holds several entries; their conditions need not be identical. Identical values can stand only once. Entries after “also recorded” stand apart in the source; their conditions may differ. Where no end group is shown, it is not given here.
# Columns and labels:
# Assay type in all cases: cell-based, human
# [1] = test system: stage 4 neural stem cells; test: HD-DoE 8-factor experiment for stage 5 recipe (Forskolin, Arachidonic acid, VPA, BDNF, BT13, O-LPA, GW7646, Sodium pyruvate), optimized for PVALB
# Description: To further guide the differentiation of forebrain-committed neural stem cells to PVALB interneuron cells, an additional HD-DoE experiment was performed for 3 days on cells that were treated with stage 1 to stage 4 media for total of 12 days prior to start of the experiment. This experiment included 8 effectors, Forskolin, Arachidonic acid, VPA, BDNF, BT13, O-LPA, GW7646, and Sodium pyruvate. In this model, we focused on maximum expression of PVALB gene expressed in PVALB (+) interneurons (Nahar et al. (2021) Front. Psych. 12:679960). When the model was optimized for maximum expression of PVALB, Forskolin, GW7646, Sodium Pyruvate had the highest factor contributions, 3.14, 27.2, and 17.1 respectively (FIG. 25).
# So, it was excluded in the recipe.
# [2] = test system: forebrain-committed neural stem cells (stage 1 neural stem cells); test: HD-DoE 12-factor experiment for stage 2 recipe, optimized for NKX2-1; settings: model maximized for NKX2-1 / dynamic profile, FIG. 7 and 8
# Description: To further guide the differentiation of forebrain-committed neural stem cells to ventral forebrain neural stem cells at stage 2, a HD-DoE experiment was performed for 3 days after termination of stage 1 treatment. At this time, we focused on maximum expression of NKX2-1 that is expressed in ventral forebrain region and minimum expression of PAX6 that is expressed in dorsal forebrain region. This 12-factor experiment included LDN193189, BMP7, PD0325901, MK2206, A8301, XAV939, CHIR99021, Purmorphamine, SANT-1, AGN193109, TTNPB and GSI-XX.
# [3] = test system: stage 2 neural stem cells (cells treated with stage 1 and stage 2 media); test: HD-DoE experiment for stage 3 recipe, optimized for ASCL1; settings: for factor contribution on expression of ASCL1: positive, model optimized for maximum expression of ASCL1 at 1700, FIG. 9
# Description: To further guide the cells to medial ganglionic eminence progenitor fate, an additional HD-DoE experiment was performed for 3 days on cells that were treated with stage 1 and stage 2 media for total of 6 days prior to start of the experiment. This experiment included 13 effectors, LDN193189, A8301, GNF5837, AZD3147, GSI-XX, Takinib, PD0325901, PD173074, BLU9931, IGF-1, MHY1485, Purmorphamine and Prostratin. In this model, we focused on maximum expression of genes expressed in neuronal progenitor cells in medial ganglionic eminence (MGE) region including ASCL1, LHX6 and DLX1 (Silberberg et al. (2016) Neuron 92:59-74). When the model was optimized for maximum expression of ASCL1 at 1700, A8301, GSI-XX, Purmorphamine and Takinib, which is an inhibitor of TAK1 pathway, had the highest factor contributions, 18.1, 14.1, 12.7 and 10.1 respectively. […]
# [4] = test system: stage 2 neural stem cells; test: factor criticality analysis (dynamic profile analysis) of stage 3 recipe; set-up: unit not given here; settings: other five factors present; for expression level of DLX1 when the effector is removed: 220 with all six factors; for expression level of LHX6 when the effector is removed: 240 with all six factors; for expression level of ASCL1 when the effector is removed: 1650 with all six factors
# Description: To assess the impact of the elimination of each validated factor, dynamic profile analysis was used and compared the expression level of genes of interest in absence of each finalized factor while others are present. […] In the stage 3 recipe, each of the six finalized factors were removed while the other five factors remained present and the expression levels of ASCL1, DLX1 and LHX6 were assessed compared to the presence of all six factors. […] As expected, in the absence of IGF-1, the value of DLX1 increases to 410, however, ASCL1 and LHX6 decreased to 1390 and 220, respectively.
# MGE progenitor cells [5] = test: HD-DoE 12-factor experiment for stage 4 recipe, optimized for MEF2C; settings: for impact on expression of MEF2C: dynamic profile analysis, FIG. 20
# Source text: These effectors are small molecules or proteins. They are commonly used during stepwise differentiation of stem cells to specific fates. The choice of the effectors was based on current literature on neural induction in forebrain region of developing brain and differentiation of stem cells to neural progenitors.
# To evaluate the effectors, experiments with at least 8 factors were designed that can assess the response of cells to 48 or more different combinations of effectors in a range of concentrations. To analyze the models, we focused on expression of genes involved in development and patterning of the forebrain interneurons maturation including LHX6 (Yuan et al. (2018) Elife, 7:e37382), DLX5 (Wang et al. (2010) J. Neuroscience 30:5334-5345), ASCL1 (Shi et al. (2016) J. Biol. Chem. 291:13560-13570). At later stages we focused on interneuron maturation genes including Parvalbumin and absence of somatostatin (Horn and Nicoll (2018) Proc. Natl. Acad. Sci. 115:589-594). The impacts of each effector on gene expression level are defined by a parameter called factor contribution that is calculated for each effector during the modeling.
# To identify the recipe of stage 4 of differentiation, 48 different combinations of effectors generated using Design-of-Experiments compression through D-optimality were robotically prepared. The effector combinations were prepared in a basal media and were subsequently added to the cells, which were then allowed to differentiate. Three days later RNA extraction was performed, and gene expression was obtained using quantitative PCR analysis. The data was normalized and modeled using partial least squares regression analysis to the effector design, resulting in the generation of gene-specific models, which after model tuning for maximal predictive power, provided explanation of the effectors ability to control the expression of individual genes, combinatorically, and individually. Solutions within the tested space could then be explored to address desirability. […] Valproic Acid can inhibit histone deaceylases and increase γ-aminobutyric acid (GABA). […] GDNF is the […] Glial cell line-derived neurotrophic factor and can activate the GDNF pathway.
# To find the set of factors that have the potential to optimize MEF2C in this experiment, a new assessment was done through dynamic profile analysis with focus on maximal expression of MEF2C (FIG. 20).
# [6] = test system: stage 4 neural stem cells; test: HD-DoE 8-factor experiment for stage 5 recipe (Prostratin, Rosiglitazone, GSI-XX, Heparin, GW0742, N2, THI0019, GDNF), optimized for PVALB; settings: for impact on expression of PVALB: dynamic profile analysis, FIG. 24; for factor contribution on expression of PVALB: positive, model optimized for maximum expression of PVALB, FIG. 23
# Description: To investigate effect of other factors on differentiation of forebrain-committed neural stem cells to PVALB interneuron cells, an additional HD-DoE experiment was performed for 3 days on cells that were treated with stage 1 to stage 4 media for total of 12 days prior to start of the experiment. This experiment included eight effectors, Prostratin, Rosiglitazone, GSI-XX, Heparin, GW0742, N2, THI0019, and GDNF. In this model, we focused on maximum expression of PVALB gene expressed in PVALB (+) interneurons (Nahar et al. (2021) Front. Psych. 12:679960). When model was optimized for maximum expression of PVALB, Prostratin, GW0742, N2, and GDNF had the highest factor contributions, 13.56, 19.499, 15.9 and 8.2 respectively (FIG. 23).
# So, they were excluded in the recipe.
# MGE progenitor cells [7] = test: factor criticality analysis of stage 4 recipe; settings: FIG. 27
# Description: (§1) To assess the impact of elimination of each validated factor, we again used dynamic profile analysis and compared the expression level of genes of interest in the absence of each finalized factor while others are present.
# In the stage 4 recipe, each of five finalized factors were removed while the other four factors were present and expression levels of forebrain genes were assessed compared to the presence of all 5 factors. MEF2C was reported to determine the PVALB-precursors cell fate (Mayer et al. (2018) Nature 555:457-462). We optimize MEF2C expression at this stage. […] (FIG. 27).
# [8] = test system: cells after termination of stage 4 treatment; test: HD-DoE 8-factor experiment for stage 5 recipe (JQ1, Indolactam-V, Oleic acid, BDNF, IGF-1, 2-phospho-L-Ascorbic acid, Albumax, MK2206), optimized for PVALB
# Source text: To further guide the differentiation of forebrain-committed neural stem cells to PVALB interneuron cells at stage 5, we performed a HD-DoE experiment for 3 days after termination of stage 4 treatment. At this time, we focused on maximum expression of PVALB that was expressed in Parvalbumin (+) interneurons and minimum expression of Somatostatin that is another type of interneurons. This 8-factor experiment included JQ1, Indolactam-V, Oleic acid, BDNF, IGF-1, 2-phospho-L-Ascorbic acid, Albumax, MK2206. […] Using dynamic profile analysis, we modified the model to achieve the maximum expression level of PVALB simultaneously and therefore 2-phospho-L-ascorbic acid, BDNF, IGF1 were included while MK2206, Albumax, and JQ1 are excluded (FIG. 22). Considering the model at different optimization settings for maximum differentiation of cells toward ventral forebrain, the recipe for stage 5 of differentiation included BDNF, IGF-1, 2-phospho-L-ascorbic acid from this HD-Doe experiment.
# [9] = test system: stage 4 neural stem cells; test: factor criticality analysis of stage 5 recipe
# Description: as §1
# In the stage 5 recipe, each of seven finalized factors were removed while other factors were kept present and expression levels of PVALB and SST were assessed compared to the presence of all seven factors. […] 2-phospho-L-ascorbic acid, BDNF, IGF-1 were included in the stage 5 recipe (FIG. 28). […] Others were also found to increase the expression of somatostatin that was SST interneuron marker. So, they are excluded from the recipe and N2 was included in the stage 5 recipe (FIG. 29). […] Sodium pyruvate was included in the stage 5 recipe (FIG. 30).
# [10] = dynamic profile analysis, FIG. 10
# [11] = positive impact, model optimized for maximal expression of MEF2C at 453, FIG. 19
molecule,measurement,setting,value
CCN(CC)S(=O)(=O)c1ccc(OC)c(N2CCN(C(=O)c3ccc(F)cc3C(F)(F)F)CC2)c1 [BT13],impact on expression of PVALB,"[1]; dynamic profile analysis, FIG. 26",significant negative impact
C=C[C@@]1(C)CC(=O)[C@]2(O)[C@@]3(C)[C@@H](O)CCC(C)(C)[C@@H]3[C@H](O)[C@H](OC(C)=O)[C@@]2(C)O1 [Forskolin],factor contribution on expression of PVALB,"[1]; positive, model optimized for maximum expression of PVALB, FIG. 25",3.14
C[C@H](NC(=O)Cc1cc(F)cc(F)c1)C(=O)N[C@@H]1C(=O)N(C)c2ccccc2-c2ccccc21 [GSI-XX],impact on expression of NKX2-1,[2],increase its expression level
same,impact on expression of ASCL1,[3]; [10],Positive impact
same,impact on expression of LHX6,[3]; [10],Positive impact
same,factor contribution on expression of ASCL1,[3],14.1 and 14
same,expression level of DLX1 when the effector is removed,[4],50
same,expression level of LHX6 when the effector is removed,[4],140
same,expression level of ASCL1 when the effector is removed,[4],1200
same,impact on expression of MEF2C,MGE progenitor cells [5],negative effect
same,factor contribution on expression of MEF2C,"MGE progenitor cells [5]; significant negative effect, model optimized for maximal expression of MEF2C",11.6
same,impact on expression of PVALB,[6],negative impact
Cc1cc(SCc2sc(-c3ccc(C(F)(F)F)c(F)c3)nc2C)ccc1OCC(=O)O [GW0742],factor contribution on expression of PVALB,[6],19.499
O=[N+]([O-])c1ccc(Nc2nc(N3CCOCC3)nc(N3CCOCC3)n2)cc1 [MHY1458],factor contribution on expression of ASCL1,[3],below 2
same,factor contribution on expression of MEF2C,MGE progenitor cells [5]; [11],0.04
same,effect on PVALB expression,MGE progenitor cells [7],increase PVALB expression
CC(=O)O[C@@]12C[C@@H](C)[C@@]3(O)[C@@H](C=C(CO)C[C@]4(O)C(=O)C(C)=C[C@@H]34)[C@@H]1C2(C)C [Prostratin],factor contribution on expression of PVALB,[6],13.56
CCCC[C@@H](COC(=O)N(Cc1cccs1)Cc1cccs1)NC(=O)N[C@@H](CC(=O)OC)c1ccc2c(c1)OCO2 [THI0019],impact on expression of PVALB,[6],negative impact
"CCCC(CCC)C(=O)O [Valproic Acid, Valproic acid]",impact on expression of MEF2C,MGE progenitor cells [5],positive impact
same,factor contribution on expression of MEF2C,MGE progenitor cells [5]; [11],12
same,effect on PVALB expression,MGE progenitor cells [7],contribute to PVALB expression
same,effect on somatostatin expression,MGE progenitor cells [7],minimal increase
Heparin,impact on expression of PVALB,[6],negative impact
"IGF-1: insulin-like growth factor 1, growth factor, IGF1 pathway agonist",impact on expression of ASCL1,[3]; [10],positive effect
same,impact on expression of DLX1,[3]; [10],negative impact
same,impact on expression of LHX6,[3]; [10],positive effect
same,factor contribution on expression of ASCL1,[3],7
same,expression level of DLX1 when the effector is removed,[4],410
same,expression level of LHX6 when the effector is removed,[4],220
same,expression level of ASCL1 when the effector is removed,[4],1390
same,impact on expression of MEF2C,MGE progenitor cells [5],negative impact
same,factor contribution on expression of PVALB,"[8]; important input for maximum expression of PVALB, FIG. 21",12.8
same,impact on expression of PVALB,"[8]; model maximized for PVALB / dynamic profile, FIG. 21 and 22",increase its expression level; also recorded: positive impact
same,effect on expression of somatostatin,[9]; FIG. 28,did not change
same,contribution to expression of PVALB (Parvalbumin),[9]; FIG. 28-30,positive contribution
"Substance P: 11 amino acid neuropeptide, member of the tachykinin neuropeptide family (RPKPQQFFGLM; ends and bridges not checked; UniProt P20366 58-68, looked up)",impact on expression of MEF2C,MGE progenitor cells [5],positive impact
same,factor contribution on expression of MEF2C,MGE progenitor cells [5]; [11],9
same,effect on MEF2C expression,MGE progenitor cells [7],increase
same,effect on somatostatin expression,MGE progenitor cells [7],decrease
"GDNF: Glial cell line-derived neurotrophic factor, activates the GDNF pathway (protein, UniProt P39905 78-211, looked up) Glial cell line-derived …: SPDKQMAVLPRRERNRQAAAANPENSRGKGRRGQRGKNRGCVLTAIHLNVTDLGLGYETKEELIFRYCSGSCDAAETTYDKILKNLSRNRRLVSDKVGQACCRPIAFDDDLSFLDDNLVYHILRKHSAKRCGCI",impact on expression of MEF2C,MGE progenitor cells [5],positive impact
same,factor contribution on expression of MEF2C,MGE progenitor cells [5]; [11],5
same,factor contribution on expression of PVALB,[6],8.2
same,effect on PVALB expression,MGE progenitor cells [7],contribute to PVALB expression
same,effect on somatostatin expression,MGE progenitor cells [7],minimal increase
